The text below walks through data of US7186829B1, “Aryl-substituted heterocyclic enaminones” (Bayer Aktiengesellschaft, priority 1999, dated 2007).

For series [1], the system named is larvae of the mustard beetle (Phaedon cochleariae). Nature of the series: Phaedon larvae test. In kind it is in vivo. The conditions noted are these: cabbage leaves (Brassica oleracea) dipped into preparation of active compound; result in words. Here is the method:
(§1) Phaedon larvae test • Solvent: 31 parts by weight of dimethylformamide • Emulsifier: I part by weight of alkylaryl polyglycol ether To produce a suitable preparation of active compound, 1 part by weight of active compound is mixed with the stated amounts of solvent and emulsifier, and the concentrate is diluted with emulsifier-containing water to the desired concentration. Cabbage leaves (Brassica oleracea) are treated by being dipped into the preparation of active compound of the desired concentration and populated with larvae of the mustard beetle (Phaedon cochleariae) while the leaves are still moist. After the desired period of time, the kill in % is determined. 100% means that all beetle larvae have been killed; 0% means that none of the beetle larvae have been killed.

The subject of series [2] is common spider mite (Tetranychus urticae). Nature of the series: Tetranychus test (OP resistent/dip treatment). The class given is in vivo. The conditions noted are these: bean plants (Phaseolus vulgaris) infested by all stages, dip treatment, OP resistent; result in words. How it is done:
Tetranychus test (OP resistent/dip treatment) • Solvent: 30 parts by weight of dimethylformamide • Emulsifier: 1 part by weight of alkylaryl polyglycol ether To produce a suitable preparation of active compound, 1 part by weight of active compound is mixed with the stated amounts of solvent and emulsifier, and the concentrate is diluted with emulsifier-containing water to the desired concentration. Bean plants (Phaseolus vulgaris) which are heavily infested by all stages of the common spider mite (Tetranychus urticae) are dipped into a preparation of active compound of the desired concentration. After the desired period of time, the kill in % is determined. 100% means that all spider mites have been killed; 0% means that none of the spider mites have been killed.

For series [3], the system named is larva (L3) of the army worm (Spodoptera frugiperda). As to the kind of experiment: Spodoptera frugiperda test. In kind it is in vivo. The note with it: preparation pipetted onto synthetic feed, result in words. How it is done:
Spodoptera frugiperda test • Solvent: 31 parts by weight of dimethylformamide • Emulsifier: 1 part by weight of alkylaryl polyglycol ether To produce a suitable preparation of active compound, 1 part by weight of active compound is mixed with the stated amount of solvent and the stated amount of emulsifier, and the concentrate is diluted with emulsifier-containing water to the desired concentration. A stated amount of the preparation of active compound of the desired concentration is pipetted onto a standardized amount of synthetic feed. In 6 repetitions, in each case one larva (L3) of the army worm (Spodoptera frugiperda) is placed on the feed. After the desired period of time, the kill in % is determined. 100% means that all animals have been killed; 0% means that none of the animals have been killed.

The subject of series [4] is Heliothis virescens caterpillars. Nature of the series: Heliothis virescens test. The conditions noted are these: soya bean shoots (Glycine max) dipped; result in words. The class given is in vivo. How it is done:
as §1, with “Heliothis virescens” for “Phaedon larvae”, “30” for “31”, “1” for “I”, “Soya bean shoots (Glycine max)” for “Cabbage leaves (Brassica oleracea)”, “Heliothis virescens caterpillars” for “larvae of the mustard beetle (Phaedon cochleariae)”, “caterpillars” for “beetle larvae”

For `CCC1COC(C)/C(=C(\C#N)C(=O)c2ccc(Cl)cc2)N1` (centres unmarked) [I-1-a-1, 3-(4-chlorophenyl)-2-(5-ethyl-2-methyl-1,4-oxazinon-3-ylidene)-3-oxopropionitrile], the melting point (commonly the temperature of the solid-liquid transition) came to 136 °C.

`CC1OCCN/C1=C(/C#N)C(=S)c1cc(C(F)(F)F)cc(C(F)(F)F)c1` (centres unmarked) [I-1-a-2, 3-[3,5-bis(trifluoromethyl)phenyl]-2-(2-methyl-1,4-oxazinan-3-ylidene)-3-thioxopropionitrile]: the melting point is 195 °C.

With `N#CC(C(=O)c1ccc(Cl)cc1)=C1COCCN1` [I-1-a-5, 3-(4-chlorophenyl)-2-(1,4-oxazinan-3-ylidene)-3-oxo-propionitrile], the melting point stood at 192 °C.

Molecule `N#CC(C(=O)c1cc(C(F)(F)F)cc(C(F)(F)F)c1)=C1CSCCN1` [I-1-a-10, 3-[3,5-bis(trifluoromethyl)phenyl]-2-(1,4-thiazinan-3-ylidene)-3-oxo-propionitrile] displayed a melting point of 182 °C. Besides, the “activity (kill in %) against Phaedon cochleariae larvae” value in series [1] was “good activity”. The “activity (kill in %) against Tetranychus urticae” value in series [2] was “good activity”.

The molecule `CC1OCCNC1=C(C#N)C(=O)c1cc(C(F)(F)F)cc(C(F)(F)F)c1` (centres unmarked) [I-1-a-14, 3-[3,5-bis(trifluoromethyl)phenyl]-2-(2-methyl-1,4-oxazinan-3-ylidene)-3-oxopropionitrile] gave a melting point of 142 °C. Moreover, the “activity (kill in %) against Spodoptera frugiperda larvae” value in series [3] is listed as “good activity”. Moreover, in series [4], the “activity (kill in %) against Heliothis virescens caterpillars” value is listed as “good activity”.

The molecule `N#C/C(C(=O)c1cc(C(F)(F)F)cc(C(F)(F)F)c1)=C1\CS(=O)(=O)CCN1` [I-1-a-15, 3-[3,5-bis(trifluoromethyl)phenyl]-2-(1,1-dioxo-Iλ^6,4-thiazinan-3-ylidene)-3-oxo-propionitrile] came in with a melting point of 224 to 226 °C.

Molecule `CC1OCCN/C1=C(/C#N)C(=O)c1cc(-c2ccc(Cl)cc2)cc(C(F)(F)F)c1` (centres unmarked) [I-1-a-37, 3-[3-(4-chlorophenyl)-5-trifluoromethylphenyl]-2-(2-methyl-1,4-oxazinon-3-ylidene)-3-oxopropionitrile] showed a melting point of 119 °C.
